Laboratory results reported in patent EP4631940A1, “COMPOUND TARGETING PAN-KRAS PROTEIN DEGRADATION AGENT AND USE THEREOF” (Betta Pharmaceuticals Co., Ltd., priority 2022, dated 2024).
Where two headings read alike, the source gives them in different places.

Columns and labels:
AGS = experiment: Cell proliferation experiment (CellTiter-Glo); assay type: cell-based; details: read-out: IC50(nM) AGS
SW620 = experiment: Cell proliferation experiment (CellTiter-Glo); assay type: cell-based; details: read-out: IC50(nM) SW620
[1] = PK study in ICR mice (whole blood); assay type: in vivo; details: Female ICR mice, IV 1 mg/kg
Experimental: Example 8 PK Study of Compound in ICR Mice (whole blood)
The compound was mixed with the vehicle (10% DMSO / 5% Solutol HS 15 / 85% saline), vortexed, and sonicated to prepare a clear solution at 0.2 mg/mL. Female ICR mice aged 6 to 7 weeks (non-fasted) were intravenously administered the compound. Whole blood was collected at specified time points. Drug concentration was analyzed by LC-MS/MS, and pharmacokinetic parameters were calculated using Phoenix WinNonlin software (Pharsight Corporation, USA). Table 11 Mouse PK Data for Intravenous Compound Monotherapy

KRAS G12D [2] = biological target: T1, KRAS G12D (Homo sapiens, UniProt P01116, G12D)
[3] = Metabolic stability in liver microsomes (NADPH); details: Human; 0.5 mg/mL liver microsomes, NADPH, 37°C
[4] = Metabolic stability in liver microsomes (NADPH); details: Rat; 0.5 mg/mL liver microsomes, NADPH, 37°C
[5] = Metabolic stability in liver microsomes (NADPH); details: Mouse; 0.5 mg/mL liver microsomes, NADPH, 37°C
[6] = Metabolic stability in liver microsomes (NADPH); details: Dog; 0.5 mg/mL liver microsomes, NADPH, 37°C
PK59 = experiment: Cell proliferation experiment (CellTiter-Glo); assay type: cell-based; details: PK-59; PK59, KRAS mutation type G12D; 96 h incubation
HCT116 = experiment: Cell proliferation experiment (CellTiter-Glo); assay type: cell-based; details: Homo sapiens, HCT-116; HCT116, KRAS mutation type G13D; 96 h incubation
H1975 = experiment: Cell proliferation experiment (CellTiter-Glo); assay type: cell-based; details: Homo sapiens, NCI-H1975; H1975, KRAS WT; 96 h incubation
in vitro [7] = details: human, microsomes
in vitro [8] = details: rat, microsomes
in vitro [9] = details: mouse, microsomes
in vitro [10] = details: dog, microsomes
KRAS G12D [11] = biological target: T1, KRAS G12D; experiment: cell-based; details: AGS
H358 = experiment: Cell proliferation experiment (CellTiter-Glo); assay type: cell-based; details: Homo sapiens, NCI-H358; H358, KRAS mutation type G12C; 96 h incubation
[12] = PK study in ICR mice (plasma); assay type: in vivo; details: Female ICR mice, IV 1 mg/kg; for AUC(0-t) / C0 / half-life: mouse
Experimental: Example 9 PK Study of Compound in ICR Mice (plasma)
The compound was mixed with the vehicle (10% DMSO / 5% Solutol HS 15 / 85% saline), vortexed, and sonicated to prepare a clear solution at 0.2 mg/mL. Female ICR mice aged 6 to 7 weeks (non-fasted) were intravenously administered the compound. Plasma was collected at specified time points. Drug concentration was analyzed by LC-MS/MS, and pharmacokinetic parameters were calculated using Phoenix WinNonlin software (Pharsight Corporation, USA). Table 12 Mouse PK Data for Intravenous Compound Monotherapy

[13] = PK study in Beagle dogs (plasma); assay type: in vivo; details: IV 1 mg/kg; for AUC(0-t) / C0 / half-life: dog
Experimental: Example 10 PK Study of Compound 135 in Beagle Dogs
Compound 135 was mixed with the vehicle (10% DMSO / 5% Solutol HS 15 / 85% saline), vortexed, and sonicated to prepare a clear solution at 0.5 mg/mL. Beagle dogs weighing approximately 10 kg (equal number of males and females, non-fasted) were intravenously administered the compound. Plasma was collected at specified time points. Drug concentration was analyzed by LC-MS/MS, and pharmacokinetic parameters were calculated using Phoenix WinNonlin software (Pharsight Corporation, USA). Table 13 Beagle Dog PK Data for Intravenous Compound Monotherapy

PK-59 cells = experiment: Anti-tumor effects in a human pancreatic cancer xenograft model carrying KRAS^G12D mutation; assay type: in vivo, BALB/c Nude Crlj mice; details: PK-59 xenograft; for TGI After 4 Weeks of Administration (%): tail vein
KRAS G12V = biological target: T2, KRAS G12V (Homo sapiens, UniProt P01116, G12V); experiment: Western blot study of KRAS degradation in SW620 cells; assay type: cell-based; details: 3 h incubation
T2 construct: endogenous in cells; host or cells: SW620

KRAS G13D = biological target: T3, KRAS G13D (Homo sapiens, UniProt P01116, G13D); experiment: Western blot study of KRAS degradation in HCT116 cells; assay type: cell-based; details: 3 h incubation
T3 construct: endogenous in cells; host or cells: HCT116

KRAS G12D [14] = biological target: T1, KRAS G12D; experiment: Western blot study of KRAS degradation in AGS cells; assay type: cell-based; design: endogenous in cells; host or cells: AGS; details: 3 h incubation

Compound | IC50 (AGS) [nM] | IC50 (SW620) [nM] | DC50 (KRAS G12D [2]) [nM] | Dmax (%) (KRAS G12D [2]) | The in vitro intrinsic clearance in liver microsomes (CLint, in vitro, µL/min/mg protein) Human [3] [µL/min/mg protein] | The in vitro intrinsic clearance in liver microsomes (CLint, in vitro, µL/min/mg protein) Rat [4] [µL/min/mg protein] | The in vitro intrinsic clearance in liver microsomes (CLint, in vitro, µL/min/mg protein) Mouse [5] [µL/min/mg protein] | The in vitro intrinsic clearance in liver microsomes (CLint, in vitro, µL/min/mg protein) Dog [6] [µL/min/mg protein] | IC50 (AGS; Homo sapiens, AGS, 96 h) [nM] | IC50 (PK59) [nM] | IC50 (HCT116) [nM] | IC50 (SW620; Homo sapiens, SW-620, 96 h) [nM] | IC50 (H1975) [nM] | microsomal CLint (in vitro [7]) [µL/min/mg] | microsomal CLint (in vitro [8]) [µL/min/mg] | microsomal CLint (in vitro [9]) [µL/min/mg] | microsomal CLint (in vitro [10]) [µL/min/mg] | Dmax (KRAS G12D [11]) [%] | IC50 (H358) [nM] | Cl_obs [12] [mL/min/kg] | other results
CCc1c(F)ccc2cc(O)cc(-c3ncc4c(N5CCC[C@@](C)(O)C5)nc(OCC5(CN6CCC7(CC6)CC(c6cn([C@H](C(=O)N8C[C@H](O)C[C@H]8C(=O)N[C@@H](C)c8ccc(-c9scnc9C)cc8)C(C)C)nn6)C7)CC5)nc4c3F)c12 [Compound 73, (2S,4R)-1-((S)-2-(4-(7-((1-((7-(8-ethyl-7-fluoro-3-hydroxynaphthalen-1-yl)-8-fluoro-4-(((R)-3-hydroxy-3-methylpiperidin-1-yl)pyrido[4,3-d]pyrimidin-2-yl)oxy)methyl)cyclopropyl)methyl)-7-azaspiro[3.5]nonan-2-yl)-1H-1,2,3-triazol-1-yl)-3-methylbutanoyl)-4-hydroxy-N-((S)-1-(4-(4-methylthiazol-5-yl)phenyl)ethyl)pyrrolidine-2-carboxamide] | 22 | 81 | 17 | 95 | 13.8 | 9.8 | 7.1 | 18.9 | – | – | – | – | – | – | – | – | – | – | – | – | AUClast [1]: 2051 ng·h/mL; C0 [1]: 3008 ng/mL; t1/2 [1]: 5.07 h; Cl_obs ([1]; 1 mg/kg): 7.97 mL/min/kg; Vss_obs ([1]; 1 mg/kg): 1.91 L/kg
CCc1c(F)ccc2cc(O)cc(-c3ncc4c(N5CCC[C@@](C)(O)C5)nc(OCC5(CN6CCC7(CC6)CN(c6ccc(-c8cn([C@H](C(=O)N9C[C@H](O)C[C@H]9C(=O)N[C@@H](C)c9ccc(-c%10scnc%10C)cc9)C(C)C)nn8)cn6)C7)CC5)nc4c3F)c12 [Compound 118] | – | – | 11 | – | – | – | – | – | 13 | 12.2 | 37 | 26 | > 10000 | 21.3 | 3.4 | 11.4 | 17.2 | 95 | – | – | –
CCc1c(F)ccc2cc(O)cc(-c3ncc4c(N5CCC[C@@](C)(O)C5)nc(OCC5(CN6CCC(Oc7ccc(-c8cn([C@H](C(=O)N9C[C@H](O)C[C@H]9C(=O)N[C@@H](C)c9ccc(-c%10scnc%10C)cc9)C(C)C)nn8)cn7)CC6)CC5)nc4c3F)c12 [Compound 135] | – | – | 14 | – | – | – | – | – | 5.2 | 14.7 | 33 | 39 | > 10000 | 11.3 | 1.5 | 13.2 | 26.9 | 95 | 7.3 | 5.80 | Vss_obs [12]: 1.61 L/kg; AUC(0-t) [12]: 2750 ng·h/mL; C0 [12]: 5840 ng/mL; half-life [12]: 6.92 h; Cl_obs [13]: 5.74 mL/min/kg; Vss_obs [13]: 2.23 L/kg; AUC(0-t) [13]: 2780 ng·h/mL; C0 [13]: 11000 ng/mL; half-life [13]: 21.4 h; TGI After 4 Weeks of Administration (%) (PK-59 cells; 1 mg/kg, QW): 70%; TGI After 4 Weeks of Administration (%) (PK-59 cells; 3 mg/kg, QW): 92%; TGI After 4 Weeks of Administration (%) (PK-59 cells; 10 mg/kg, QW): 106%; TGI After 4 Weeks of Administration (%) (PK-59 cells; 20 mg/kg, Q2W): 101%; TGI at 20 mg/kg once every two weeks versus 10 mg/kg once weekly (PK-59 cells; 4 weeks of administration): comparable TGI
CCc1c(F)ccc2cc(O)cc(-c3ncc4c(N5CCC[C@@](C)(O)C5)nc(OCC5(CN6CCC(Oc7cnc(-c8cn([C@H](C(=O)N9C[C@H](O)C[C@H]9C(=O)N[C@@H](C)c9ccc(-c%10scnc%10C)cc9)C(C)C)nn8)cn7)CC6)CC5)nc4c3F)c12 [Compound 144] | – | – | 1.1 | – | – | – | – | – | 3 | 4.4 | 13 | 8.4 | > 10000 | 18.8 | 6.2 | 10.9 | 7.4 | 95 | 5 | 5.81 | Vss_obs [12]: 1.54 L/kg; AUC(0-t) [12]: 2730 ng·h/mL; C0 [12]: 5530 ng/mL; half-life [12]: 9.34 h; Cl_obs [13]: 6.19 mL/min/kg; Vss_obs [13]: 3.46 L/kg; AUC(0-t) [13]: 2520 ng·h/mL; C0 [13]: 9890 ng/mL; half-life [13]: 20.5 h; TGI After 4 Weeks of Administration (%) (PK-59 cells; 1 mg/kg, QW): 82%; TGI After 4 Weeks of Administration (%) (PK-59 cells; 3 mg/kg, QW): 93%; TGI After 4 Weeks of Administration (%) (PK-59 cells; 10 mg/kg, QW): 113%; KRAS G12V protein degradation (Western blot, Fig. 5) (KRAS G12V): effectively degraded; KRAS G13D protein degradation (Western blot, Fig. 5) (KRAS G13D): effectively degraded; KRAS G12D protein degradation (Western blot, Fig. 5) (KRAS G12D [14]): effectively degraded
(2S,4R)-1-((S)-2-(5-(((3S,7aS)-7a-(((7-(8-ethyl-7-fluoro-3-hydroxynaphthalen-1-yl)-8-fluoro-4-( (R)-3-hydroxy-3-methylpiperidin-1-yl)pyrido[4,3-d]pyrimidin-2-yl)oxy)methyl)-6-methylenehex ahydro-1H-pyrrolidin-3-yl)methoxy)methyl)-1H-1,2,3-triazol-1-yl)-3-methylbutanoyl)-4-hydrox y-N-(((S)-1-(4-(4-methylthiazol-5-yl)phenyl)ethyl)pyrrolidine-2-carboxamide [Compound 120] | 12 | 102 | 11 | 95 | 128 | 9.3 | 48.5 | 113 | – | – | – | – | – | – | – | – | – | – | – | – | –
